Experimental data from patent publication US10046038B2, “Leptospira with increased antigenic mass” (priority 2012, dated 2018).
Like-named read-outs stand apart in the source and are kept apart here.

Legend:
[1] = tested on: Leptospira serogroup Australis (serovar Bratislava); format: cell-based, L. interrogans (sensu lato)
[2] = tested on: Leptospira serogroup Icterohaemorrhagiae; assay: Antigenic mass of fermenter culture by antigen Elisa; format: cell-based, L. interrogans (sensu lato); conditions: for Ag U/10^9 cells/ml, at 3 days: BSA ingredient in EMJH medium, not supplemented
Method: A working seed of a strain of L. interrogans was inoculated into EMJH medium and incubated at 29° C. for 3 to 5 days. If needed up to 5 consecutive pre-culture passages could be made, whereby the pre-cultures were visually inspected for sufficient proliferation (turbidity) as criterion for transfer to the next passage.
(§1) All experiments were performed in 0.5, 2 or 20 L working volume, computer-controlled fermenters (Sartorius), which were filled with 0.5, 1 or 10 L sterile-filtered EMJH medium, respectively. The standard EMJH medium contained 1% w/v BSA and 0.125% w/v polysorbate 80. The pH of the medium was 7.4 ±0.1 at start. The fermenter was inoculated with 5% v/v serogroup lcterohaemorrhagiae pre-culture (passage 5), giving an inoculation density of 2-4×10^7 cells/ml at day 0.
(§2) During all fermentation experiments the temperature was controlled at about 29° C. The medium was aerated with headspace airflow, and the dissolved oxygen (pO2) concentration was controlled by automatic variation of the agitation-rate, to maintain a set pO2 concentration. Temperature, pH and pO2 concentration were monitored online, but pH and foam formation were not controlled.
In comparative experiments up to 4 fermenters were run in parallel, which started off simultaneously with the same medium and Leptospira inoculum. One fermenter then usually contained only standard EMJH medium and served as reference, while in the others different supplementations of polyunsaturated C18 fatty acid were made.
(§3) Supplementation was done either with pure linoleic acid (Sigma Aldrich, >99% pure) as a 10% v/v stock in absolute ethanol (JT Baker). Alternatively, linoleic acid was supplemented by using a BSA that was created with a high level of linoleic acid (high LA BSA). This high LA BSA was used either to replace a standard BSA in EMJH medium, or was used in addition to BSA in the EMJH medium, in which case it was added as a 25% w/v stock solution in sterile water. The high LA BSA or the pure linoleic acid/ethanol supplements were fed to a fermenter over the course of 4 hours, at 0.1-0.2 ml/hour, until the fermenter culture had received a desired total amount of linoleic acid. Different total available levels of linoleic acid have been tested, of between about 5 and 425 μg/ml in the total volume. The fermenter cultures of Leptospira were supplemented at different cell-densities i.e. at early-, mid- or end phase culture.
(§4) Daily 5 ml samples were taken aseptically, directly from the fermenter, for analyses of total cell count (by Petroff-Hausser counting chamber); antigenic mass (by antigen amount Elisa); inactivated cells; and for profiling of the fatty acid type and-relative amounts (by gas chromatography) in the culture medium.
(§5) Samples were inactivated with 0.1 or 0.2% v/v BPL, at 29° C. for 16-24 hours. The inactivated Leptospira were tested in an antigen Elisa within 24 hours.
(§6) For a reference see: R. A. Hartskeerl et al., (International course on laboratory methods for the diagnosis of Leptospirosis, 4th Edition, 1 Apr. 2004. Royal Tropical Institute, Amsterdam).
(§7) The Elisa's were set up as capture assays, whereby the same moab was used for coating and for detection.
A reference standard was prepared for each Leptospira strain that was tested by antigen Elisa. The standard is a batch of monovalent Leptospira antigen, from inactivated cells. This was prepared using common techniques, essentially by proliferating a specific strain of Leptospira in EMJH medium as described above, and was inactivated as described before.

[3] = tested on: Leptospira serogroup Tarassovi; format: cell-based, L. interrogans (sensu lato)
Method: as §1, §3, §4, §5, §6, §7
(§8) A reference standard was prepared for each Leptospira strain that was tested by antigen Elisa. The standard is a batch of monovalent Leptospira antigen, from inactivated cells. This was prepared using common techniques, essentially by proliferating a specific strain of Leptospira in EMJH medium as described above, and was inactivated as described before. Next the standard was concentrated and/or diluted in phosphate buffered saline, to contain about 1×10^9 cells/ml. An arbitrary number of antigen units was affixed to the sample, for example: 1000 Units/ml. When the standard needed replenishing, a subsequent preparation of the same standard, was compared and titrated alongside the old standard several times, before replacing it.
(§9) As before, the average antigenic mass score by Elisa was calculated per 1×10^9 cells (pre-inactivation). […] The average antigenic mass 1×10^9 cells of the reference culture was set at 0% increase.
Both alpha-and gamma C18:3 were purchased as pure chemicals (>98%).

[4] = tested on: Leptospira serogroup Grippotyphosa; format: cell-based, L. interrogans (sensu lato)
[5] = tested on: Leptospira serogroup Canicola (strain WS 280503)
Method: as §1, §4, §5, §6, §7, §8, §9
(§10) Both alpha-and gamma C18:3 were purchased as pure chemicals (>98%). Shortly before use for supplementation, they were diluted in pure ethanol to 10% or 20% v/v, depending on the amount of C18:3 that was to be added to a culture. This dilution in ethanol was added to a Leptospira culture by addition in 5 doses, divided over a period of 4 hours.

[6] = tested on: Leptospira serogroup Pomona
Method: as §1, §4, §5, §6, §7, §8, §9, §10

[7] = tested on: Leptospira serogroup Icterohaemorrhagiae; assay: Biomass (total cell count) and toxicity in fermenter culture; format: cell-based, L. interrogans (sensu lato)
Method: as §2

[8] = tested on: Leptospira serogroup Sejroe (serovar Hardjo); assay: Antigenic mass of fermenter culture by antigen Elisa; format: cell-based, L. interrogans (sensu lato); conditions: high LA BSA in EMJH
Method: as §3, with “culture. Typical mid-phase cell density was at about 5×10^8 cells/ml, which was reached during day 2 of the main incubation. Upon supplementation with linoleic acid from the pure linoleic acid in ethanol stock, sometimes a small decrease in pH was noted, which was corrected by applying some NaOH.” for “culture.”
In a next study it was confirmed that the increase in antigenic mass upon supplementation with linoleic acid (C18:2) is a general phenomenon in Leptospira. […]

[9] = 100 μg/ml, alpha vs gamma side by side, FIGS. 19 and 20
[10] = supplementation at 5×10^8 cells/ml, FIGS. 33-36
[11] = supplementation at 8×10^8 cells/ml, FIGS. 33-36
[12] = BSA used in EMJH medium, compared with standard BSA

## CCC=CCC=CCC=CCCCCCCCC(=O)O [alpha C18:3, 9, 12, 15-octadecatrienoic acid]
[1]; 100 μg/ml alpha C18:3
  Relative increase in antigenic mass (%): 40%
[1]; 200 μg/ml alpha C18:3
  Relative increase in antigenic mass (%): 62%
[2]; 100 μg/ml single fatty acid, FIGS. 37 and 38
  increase in relative antigenic mass: 144%
[2]; [9]
  increase in relative antigenic mass: 122%
[2]; 100 μg/ml, FIGS. 15 and 16, vs unsupplemented reference
  increase in antigenic mass: 122%
[2]; 200 μg/ml, FIGS. 15 and 16, vs unsupplemented reference
  increase in antigenic mass: 81%
[2]; supplementation at 1×10^8 cells/ml, FIGS. 33-34
  Relative increase in antigenic mass: 163%
[2]; [10]
  Relative increase in antigenic mass: 164%
[2]; [11]
  Relative increase in antigenic mass: 140%
[3]; 100 μg/ml alpha C18:3
  Relative increase in antigenic mass (%): 59%
[3]; 200 μg/ml alpha C18:3
  Relative increase in antigenic mass (%): 141%
[4]; 100 μg/ml alpha C18:3
  Relative increase in antigenic mass (%): 60%
[4]; 200 μg/ml alpha C18:3
  Relative increase in antigenic mass (%): 63%
[5]; 200 μg/ml
  Relative increase in antigenic mass (%): 107%
[5]; 300 μg/ml
  Relative increase in antigenic mass (%): 112%
[5]; 400 μg/ml
  Relative increase in antigenic mass (%): 118%
[6]; 100 μg/ml alpha C18:3
  Relative increase in antigenic mass (%): 0%
[6]; 200 μg/ml alpha C18:3
  Relative increase in antigenic mass (%): 0%
[7]; 300 or 400 μg/ml, FIGS. 15 and 16
  toxicity on the culture: toxic effects

## BSA, Millipore: standard commercial BSA (Millipore)
[2]
  Ag U/10^9 cells/ml, at 3 days: 525 Ag U/10^9 cells/ml

## BSA, BovoStar ®: a standard all-purpose BSA from the same manufacturer (Bovogen)
[2]
  Ag U/10^9 cells/ml, at 3 days: 533 Ag U/10^9 cells/ml

## high LA BSA: a BSA that was created with a high level of linoleic acid
[2]; high LA BSA at 1% w/v in EMJH, 25 μg/ml linoleic acid available, average of days 3-5
  antigenic mass: 1636 Ag U/1×10^9 cells
[2]; supplem. high LA BSA giving 50 μg/ml C18:2, total 55 μg/ml, EMJH standard BSA, average of days 3-5
  Ag. mass, Ag U/10^9 cells/ml: 1612 Ag U/10^9 cells/ml
[2]; supplem. high LA BSA giving 50 μg/ml C18:2, total 55 μg/ml, non-supplemented = 100, average of days 3-5
  relative Ag. mass (%): 221%
[4]; high LA BSA in EMJH, C18:2 total 25 μg/ml (reference = 100), 2 day average
  relative Ag. mass (%): 100%
[4]; high LA BSA in EMJH, C18:2 total 25 μg/ml, 2 day average (days 4 and 5)
  Antigenic mass, Ag U/10^9 cells/ml: 5074 Ag U/10^9 cells/ml
[8]; C18:2 total 25 μg/ml (reference = 100), 2 day average
  relative Ag. mass (%): 100%
[8]; C18:2 total 25 μg/ml, 2 day average (days 5 and 6)
  Antigenic mass, Ag U/10^9 cells/ml: 287 Ag U/10^9 cells/ml

## CCCCCC=CCC=CCC=CCCCCC(=O)O [gamma C18:3, 6,9, 12-octadecatrienoic acid]
[1]; 100 μg/ml gamma C18:3
  Relative increase in antigenic mass (%): 15%
[2]; [9]
  increase in relative antigenic mass: 170%
[2]; 200 μg/ml, FIGS. 17 and 18
  increase in antigenic mass: 114%
[2]; 300 μg/ml, FIGS. 17 and 18
  increase in antigenic mass: 153%
[2]; supplementation at 2×10^8 cells/ml, FIGS. 35-36
  Relative increase in antigenic mass: 71%
[2]; [10]
  Relative increase in antigenic mass: 81%
[2]; [11]
  Relative increase in antigenic mass: 162%
[3]; 100 μg/ml gamma C18:3
  Relative increase in antigenic mass (%): 51%
[4]; 100 μg/ml gamma C18:3
  Relative increase in antigenic mass (%): 57%
[5]; 200 μg/ml
  Relative increase in antigenic mass (%): 98%
[5]; 300 μg/ml
  Relative increase in antigenic mass (%): 83%
[6]; 100 μg/ml gamma C18:3
  Relative increase in antigenic mass (%): 73%
[7]; 400 μg/ml, FIGS. 17 and 18
  toxicity on the culture: showed toxicity

## BSA, BovoLep ®: standard BSA enriched with a number of vegetable fatty acids, recommended for promoting growth of Leptospira (Bovogen, Australia)
[2]
  Ag U/10^9 cells/ml, at 3 days: 498 Ag U/10^9 cells/ml
[2]; [12]
  effect on antigenic mass: no significant effect
[7]; [12]
  effect on biomass: did increase the biomass
